According to ChEMBL document CHEMBL1150412, “1,5-Diphenylpyrrole derivatives as antimycobacterial agents. Probing the influence on antimycobacterial activity of lipophilic substituents at the phenyl rings” (J Med Chem, 2008):
Converted amounts (≈) assume the structure as drawn.

How the values were obtained:
[1] = tested on: Mycobacterium tuberculosis; assay: Antimycobacterial activity against rifampicin-resistant Mycobacterium tuberculosis; format: functional
[2] = tested on: Mycobacterium tuberculosis; assay: Antimycobacterial activity against isoniazid-resistant Mycobacterium tuberculosis; format: functional

| Compound | MIC [1] [µg/mL] | MIC [2] [µg/mL] |
| --- | --- | --- |
| Cc1c(CN2CCN(C)CC2)cc(-c2ccc(Cl)cc2)n1-c1ccc(Cl)cc1 | 1 (≈ 2.41 µM) | 2 (≈ 4.83 µM) |
| Cc1ccc(-c2cc(CN3CCSCC3)c(C)n2-c2ccc(F)cc2)cc1 | 0.5 (≈ 1.31 µM) | 32 (≈ 84.1 µM) |
| Cc1c(CN2CCSCC2)cc(-c2ccc(Cl)cc2)n1-c1ccc(C(C)C)cc1 | 0.25 (≈ 0.588 µM) | > 16 |
| CCc1ccc(-n2c(-c3ccc(Cl)cc3)cc(CN3CCSCC3)c2C)cc1 | 0.5 (≈ 1.22 µM) | 16 (≈ 38.9 µM) |
| Cc1c(CN2CCSCC2)cc(-c2ccc(C(C)C)cc2)n1-c1ccc(F)cc1 | 0.25 (≈ 0.612 µM) | > 16 |
| Cc1ccc(-c2cc(CN3CCSCC3)c(C)n2-c2ccc(Cl)cc2)cc1 | 0.5 (≈ 1.26 µM) | 16 (≈ 40.3 µM) |
| CCc1ccc(-c2cc(CN3CCSCC3)c(C)n2-c2ccc(Cl)cc2)cc1 | 0.25 (≈ 0.608 µM) | 16 (≈ 38.9 µM) |
| Cc1ccc(-n2c(-c3ccc(Cl)cc3)cc(CN3CCSCC3)c2C)cc1 | 0.5 (≈ 1.26 µM) | > 16 |
| CCCc1ccc(-n2c(-c3ccc(Cl)cc3)cc(CN3CCSCC3)c2C)cc1 | 0.25 (≈ 0.588 µM) | > 16 |
| CCCc1ccc(-c2cc(CN3CCSCC3)c(C)n2-c2ccc(Cl)cc2)cc1 | 0.125 (≈ 0.294 µM) | > 16 |
| Cc1c(CN2CCSCC2)cc(-c2ccc(C(C)C)cc2)n1-c1ccc(Cl)cc1 | 0.125 (≈ 0.294 µM) | 8 (≈ 18.8 µM) |
| [H]/N=C(/N)N[C@H]1[C@H](O)[C@@H](O)[C@H](O[C@@H]2O[C@@H](C)[C@](O)(C=O)[C@H]2O[C@@H]2O[C@@H](CO)[C@H](O)[C@@H](O)[C@@H]2NC)[C@@H](N/C(N)=N\[H])[C@@H]1O (stereo in doubt) [STREPTOMYCIN] | 4 (≈ 6.88 µM) | 16 (≈ 27.5 µM) |
| NNC(=O)c1ccncc1 [ISONIAZID] | 0.25 (≈ 1.82 µM) | > 16 |
| CO[C@H]1/C=C/O[C@@]2(C)Oc3c(C)c(O)c4c(O)c(c(/C=N/N5CCN(C)CC5)c(O)c4c3C2=O)NC(=O)/C(C)=C\C=C\[C@H](C)[C@H](O)[C@@H](C)[C@@H](O)[C@@H](C)[C@H](OC(C)=O)[C@@H]1C [RIFAMPIN] | > 64 | 0.25 (≈ 0.304 µM) |
